Measured values: US10662204B2 (PFIZER INC., priority 2018, dated 2020)

Experiments:
KRAS G12C = KRAS G12C (Homo sapiens, UniProt P01116, G12C); experiment: Cell Activity Assay: accumulation of GDP-bound KRAS G12C in MIAPaCa-2 cells (Raf-1 RBD capture, MSD readout); type: cell-based; set-up: endogenous in cells; host or cells: MIAPaCa-2; conditions: 6 hours, assay limit is 30.00
Method in brief: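 IC50 came from a 4-parameter fit of Ras signal normalized between DMSO and full-inhibition controls. Readout: lysate GTP-Ras bound to immobilized Raf-1 RBD, quantified with pan-Ras antibody and MSD electrochemiluminescence. Lysates derived from MIAPaCa-2 cells treated 6 h with serially diluted compound, 0.3% DMSO.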

[1] = target: T1, GDP-loaded KRAS (1-169) G12C, C51S, C80L, C118S (Homo sapiens, UniProt P01116, C118S/C51S/C80L/G12C); experiment: Mass Spectrometry Reactivity Assay (MSRA): covalent adduct of compound and KRAS G12C, Percent Modification; type: binding; conditions: for MSRA (% modification) 10 μM 0.25 hr / MSRA (% modification) 10 μM 0.50 hr: 10 μM compound; for MSRA (% modification) 5.0 μM 0.017 hr / MSRA (% modification) 5.0 μM 0.25 hr: 5.0 μM compound
T1 construct: GDP-loaded KRAS (1-169) G12C, C51S, C80L, C118S
Method in brief: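 Covalent labelling is measured by intact mass: deconvoluted modified and unmodified peak intensities yield percent modification. Compound, usually 5 μM or 10 μM final, reacts at room temperature with 5 μM GDP-bound KRAS G12C (1-169, C51S/C80L/C118S) in Hepes pH 7.5/NaCl/glycerol, sampled at 1, 15, 30, 60 min.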

IC50 (KRAS G12C)	MSRA (% modification) 10 μM 0.25 hr [1]	MSRA (% modification) 5.0 μM 0.017 hr [1]	MSRA (% modification) 10 μM 0.50 hr [1]	MSRA (% modification) 5.0 μM 0.25 hr [1]	Compound
0.054 µM	79%	–	–	–	C=CC(=O)N1CCN(c2nc(OC[C@@H]3C[C@H](F)CN3C)nc3c(Oc4c(C)c(Cl)cc5[nH]ncc45)nc(Cl)cc23)CC1 [Example 17G, 1-[4-(6-chloro-8-[(6-chloro-5-methyl-1H-indazol-4-yl)oxy]-2-{[(2S,4S)-4-fluoro-1-methylpyrrolidin-2-yl]methoxy}pyrido[3,4-d]pyrimidin-4-yl)piperazin-1-yl]prop-2-en-1-one]
0.026 µM	–	69%	–	–	C=CC(=O)N1CCN(c2nc(O[C@@H]3CN(CC)C[C@H]3OC)nc3c(Oc4c(Cl)c(F)cc5[nH]ncc45)nccc23)CC1 [Example 17H, 1-[4-(8-[(5-chloro-6-fluoro-1H-indazol-4-yl)oxy]-2-{[(3R,4R)-1-ethyl-4-methoxypyrrolidin-3-yl]oxy}pyrido[3,4-d]pyrimidin-4-yl)piperazin-1-yl]prop-2-en-1-on]
0.005 µM	–	82%	–	–	C=CC(=O)N1CCN(c2nc(Oc3cccc4c3CCN(CC)C4)nc3c(Oc4c(Cl)c(F)cc5[nH]ncc45)nccc23)CC1 [Example 17I, 1-(4-{8-[(5-chloro-6-fluoro-1H-indazol-4-yl)oxy]-2-[(2-ethyl-1,2,3,4-tetrahydro-isoquinolin-5-yl)oxy]pyrido [3,4-d]pyrimidin-4-yl}piperazin-1-yl)prop-2-en-1-one]
6.45 µM	–	–	34%	–	C=CC(=O)N1CCN(c2ncnc3c(Oc4c(C)ccc5[nH]ncc45)nc(C#N)cc23)CC1 [Example 18A, 4-(4-acryloylpiperazin-1-yl)-8-[(5-methyl-1H-indazol-4-yl)oxy]pyrido[3,4-d]pyrimidine-6-carbonitrile]
1.1 µM	–	–	50%	36%	C=CC(=O)N1CCN(c2ncnc3c(Oc4c(Cl)c(F)cc5[nH]ncc45)cccc23)CC1 [Example 18C, 1-(4-{8-[(5-chloro-6-fluoro-1H-indazol-4-yl)oxy]quinazolin-4-yl}piperazin-1-yl)prop-2-en-1-one]
0.262 µM	80%	–	–	–	C=CC(=O)N1CCN(c2nc(OC[C@H]3CCN(C)C3)nc3c(Oc4c(Cl)c(F)cc5[nH]ncc45)nccc23)CC1 [Example 18E, 1-[4-(8-[(5-chloro-6-fluoro-1H-indazol-4-yl)oxy]-2-{[(3S)-1-methylpyrrolidin-3-yl]methoxy}pyrido[3,4-d]pyrimidin-4-yl)piperazin-1-yl]prop-2-en-1-one]
29.3 µM	–	–	23%	–	C=CC(=O)N1CCN(c2nc(N3CC4(C3)C(=O)NCN4C)nc3c(Oc4c(C)ccc5[nH]ncc45)cccc23)CC1 [Example 18F, 2-{4-(4-acryloylpiperazin-1-yl)-8-[(5-methyl-1H-indazol-4-yl)oxy]quinazolin-2-yl}-5-methyl-2,5,7-triazaspiro[3.4]octan-8-one]
0.07 µM	–	52%	–	–	C=CC(=O)N1CCN(c2nc(O[C@@H]3CN(CCOC)C[C@H]3OC)nc3c(Oc4c(Cl)c(F)cc5[nH]ncc45)nccc23)CC1 [Example 18H, 1-[4-(8-[(5-chloro-6-fluoro-1H-indazol-4-yl)oxy]-2-{[(3R,4R)-4-methoxy-1-(2-methoxyethyl)pyrrolidin-3-yl]oxy}pyrido[3,4-d]pyrimidin-4-yl)piperazin-1-yl]prop-2-en-1-one]
0.093 µM	–	35%	–	–	C=CC(=O)N1CCN(c2nc(O[C@@H]3CN(C)C[C@H]3OCC)nc3c(Oc4c(Cl)c(F)cc5[nH]ncc45)nccc23)CC1 [Example 18I, 1-[4-(8-[(5-chloro-6-fluoro-1H-indazol-4-yl)oxy]-2-{[(3R,4R)-4-ethoxy-1-methyl-pyrrolidin-3-yl]oxy}pyrido [3,4-d]pyrimidin-4-yl)piperazin-1-yl]prop-2-en-1-one]
28 µM	21%	–	33%	–	C=CC(=O)N1CCN(c2ncnc3c(Oc4c(Cl)c(C)cc5[nH]ncc45)nc(C#N)cc23)CC1 [Example 19A, 4-(4-acryloylpiperazin-1-yl)-8-[(5-chloro-6-methyl-1H-indazol-4-yl)oxy]pyrido[3,4-d]pyrimidine-6-carbonitrile]
29.8 µM	33%	–	–	–	C=CC(=O)N1CCN(c2nc(OC[C@H]3CCN(C)C3)nc3c(Oc4c(C)ccc5[nH]ncc45)nccc23)CC1 [Example 19E, 1-[4-(8-[(5-methyl-1H-indazol-4-yl)oxy]-2-{[(3S)-1-methylpyrrolidin-3-yl]methoxy}pyrido[3,4-d]pyrimidin-4-yl)piperazin-1-yl]prop-2-en-1-one]
3.7 µM	24%	–	–	–	C=CC(=O)N1CCN(c2nc(NCCN3CCN(C)CC3)nc3c(Oc4c(C)ccc5[nH]ncc45)cccc23)CC1 [Example 19F, 1-[4-(8-[(5-methyl-1H-indazol-4-yl)oxy]-2-{[2-(4-methylpiperazin-1-yl)ethyl]amino}quinazolin-4-yl)piperazin-1-yl]prop-2-en-1-one]
0.004 µM	–	66%	–	–	C=CC(=O)N1CCN(c2nc(O[C@@H]3CN(C)C[C@H]3OC)nc3c(Oc4c(Cl)c(Cl)cc5[nH]ncc45)nccc23)CC1 [Example 19H, 1-[4-(8-[(5,6-dichloro-1H-indazol-4-yl)oxy]-2-{[(3R,4R)-4-methoxy-1-methylpyrrolidin-3-yl]oxy}pyrido[3,4-d]pyrimidin-4-yl)piperazin-1-yl]prop-2-en-1-one]
0.003 µM	–	82%	–	–	C=CC(=O)N1CCN(c2nc(Oc3cccc4c3CCN(C(C)C)C4)nc3c(Oc4c(Cl)c(F)cc5[nH]ncc45)nccc23)CC1 [Example 19I, 1-[4-(8-[(5-chloro-6-fluoro-1H-indazol-4-yl)oxy]-2-{[2-(propan-2-yl)-1,2,3,4-tetrahydro-isoquinolin-5-yl]oxy}pyrido [3,4-d]pyrimidin-4-yl)piperazin-1-yl]prop-2-en-1-one]
1.02 µM	8%	–	–	–	C=CC(=O)N1CCN(c2nc(OC[C@H]3CCCN3C)nc3c(Oc4c(Cl)c(F)cc5[nH]ncc45)cccc23)CC1 [Example 20E, 1-[4-(8-[(5-chloro-6-fluoro-1H-indazol-4-yl)oxy]-2-{[(2R)-1-methylpyrrolidin-2-yl]methoxy}quinazolin-4-yl)piperazin-1-yl]prop-2-en-1-one]
2.99 µM	17%	–	–	–	C=CC(=O)N1CCN(c2nc(NCc3ncc[nH]3)nc3c(Oc4c(C)ccc5[nH]ncc45)cccc23)CC1 [Example 20F, 1-(4-{2-[(1H-imidazol-2-ylmethyl)amino]-8-[(5-methyl-1H-indazol-4-yl)oxy]quinazolin-4-yl}piperazin-1-yl)prop-2-en-1-one]
0.016 µM	–	73%	–	–	C=CC(=O)N1CCN(c2nc(O[C@@H]3CN(C(C)C)C[C@H]3OC)nc3c(Oc4c(Cl)c(F)cc5[nH]ncc45)nccc23)CC1 [Example 20I, 1-[4-(8-[(5-chloro-6-fluoro-1H-indazol-4-yl)oxy]-2-{[(3R,4R)-4-methoxy-1-(propan-2-yl)pyrrolidin-3-yl]oxy}pyrido [3,4-d]pyrimidin-4-yl)piperazin-1-yl]prop-2-en-1-one]
10.6 µM	–	–	12%	–	C=CC(=O)N1CCN(c2ncnc3c(Oc4c(Cl)c(C)cc5[nH]ncc45)nccc23)C[C@H]1C [Example 21A, 1-[(2R)-4-{8-[(5-chloro-6-methyl-1H-indazol-4-yl)oxy]pyrido[3,4-d]pyrimidin-4-yl}-2-methylpiperazin-1-yl]prop-2-en-1-one]
0.18 µM	65%	–	–	–	C=CC(=O)N1CCN(c2nc(OC[C@H]3CCCN3C)nc3c(Oc4c(C)c(Cl)cc5[nH]ncc45)cccc23)CC1 [Example 21E, 1-[4-(8-[(6-chloro-5-methyl-1H-indazol-4-yl)oxy]-2-{[(2R)-1-methylpyrrolidin-2-yl]methoxy}quinazolin-4-yl)piperazin-1-yl]prop-2-en-1-one]
0.283 µM	–	–	–	61%	C=CC(=O)N1CCN(c2nc(OCC3CCCCN3C)nc3c(Oc4c(C)ccc5[nH]ncc45)cccc23)CC1 (stereo not shown) [Example 21F, 1-(4-{8-[(5-methyl-1H-indazol-4-yl)oxy]-2-[(1-methylpiperidin-2-yl)methoxy]quinazolin-4-yl}piperazin-1-yl)prop-2-en-1-one]
0.075 µM	80%	–	–	–	C=CC(=O)N1CCN(c2nc(OC[C@@H]3C[C@H](F)CN3C)nc3c(Oc4c(Cl)c(F)cc5[nH]ncc45)nc(Cl)cc23)CC1 [Example 21G, 1-[4-(6-chloro-8-[(5-chloro-6-fluoro-1H-indazol-4-yl)oxy]-2-{[(2S,4S)-4-fluoro-1-methylpyrrolidin-2-yl]methoxy}pyrido[3,4-d]pyrimidin-4-yl)piperazin-1-yl]prop-2-en-1-one]
15.6 µM	–	–	10%	–	C=CC(=O)N1CCN(c2ncnc3c(Oc4c(Cl)c(C)cc5[nH]ncc45)nccc23)C[C@@H]1C [Example 22A, 1-[(2S)-4-{8-[(5-chloro-6-methyl-1H-indazol-4-yl)oxy]pyrido[3,4-d]pyrimdin-4-yl}-2-methylpiperazin-1-yl]prop-2-en-1-one]
